What was measured:
[1] = target: mitochondrial pyruvate carrier (MPC) (Homo sapiens (Human), UniProt O95563+Q9Y5U8); experiment: BRET assay of MPC inhibitory activity in HEK cells; format: cell-based; details: HEK cells expressing MPC2-Rluc8 and MPC1-Venus; read-out: IC50 (MPC inhibition, BRET)
Protocol: The MPC is a heterodimer composed of two subunits, MPC1 and MPC2. MPC1 and MPC2 interact to form an active carrier. In the assay, MPC2 was fused to Rluc8 (Donor) and MPC1 to Venus (Acceptor). These chimeric proteins were stably expressed in HEK cells. BRET activity was measured following addition of coelenterazine in the culture medium. Coelenterazine enters into cells and in contact with luciferase Rluc8 emits light, which activates the emission of fluorescence by the Acceptor, provided the distance between the Donor and Acceptor is <[…]. If the distance between Donor and Acceptor is >[…], no BRET activity is measured. The level of BRET activity reflects a change in the conformation of the MPC: it is high when the carrier is in a closed conformation, low when the carrier is at rest and intermediary when it transports pyruvate. In this case, the BRET activity is the mean value between the BRET value when the carrier is at rest (Maximal distance between Donor and Acceptor) and the BRET value when it is closed (Shortest distance between Donor and Acceptor)
A wide range of concentrations of each of the tested compounds was used from 1 nM to 100 μM.

[2] = Plasma pharmacokinetics in mice after single oral 4.5 mg/kg M-III or MIN-102; format: in vivo, male C57BL/6 mice
Protocol: The plasma pharmacokinetics of 5-[[4-[2-[5-acetylpyridin-2-yl]ethoxy]phenyl]methyl]-1,3-thiazolidine-2,4-dione (M-III) and 5-[[4-[2-[5-(1-hydroxyethyl)pyridin-2-yl]ethoxy]phenyl]methyl]-1,3-thiazolidine-2,4-dione (M-IV) were determined in male C57BL/6 mice following a single oral (4.5 mg/kg) dose of either M-III or MIN-102 (5-[[4-[2-[5-(1-hydroxyethyl)pyridin-2-yl]ethoxy]phenyl]methyl]-1,3-thiazolidine-2,4-dione hydrochloride).
Animals were administered orally with a suspension formulation of either M-III or MIN-102 in 0.1% Tween 80 and 99.9% NaCMC in water (0.5% w/v) at 4.5 mg/kg dose. The blood samples were collected from a set of three mice at each time point in labeled micro centrifuge tubes containing K2EDTA solution as anticoagulant at Pre-dose, 0.25, 0.5, 1, 2, 4, 8, 12 and 24 hr. Plasma samples were separated by centrifugation of whole blood and stored below −70±10° C. until bioanalysis. All samples were processed for analysis by protein precipitation using acetonitrile and analyzed with fit-for-purpose LC-MS/MS method (LLOQ=2.46 ng/mL for M-III and 2.49 ng/mL for M-IV). Pharmacokinetic parameters were calculated using the non-compartmental analysis tool of Phoenix WinNonlin® (Version 6.3).

[3] = Plasma pharmacokinetics in mice after single oral 50 mg/kg M-III; format: in vivo; details: male C57BL/6 mice
Protocol: To the plasma pharmacokinetics of 5-[[4-[2-[5-acetylpyridin-2-yl]ethoxy]phenyl]methyl]-1,3-thiazolidine-2,4-dione (M-III) and 5-[[4-[2-[5-(1-hydroxyethyl)pyridin-2-yl]ethoxy]phenyl]methyl]-1,3-thiazolidine-2,4-dione (M-IV) were determined in male C57BL/6 mice following a single oral (50 mg/kg) dose administration of M-III.
Nine animals were administered orally with suspension formulation of M-III in 0.1% Tween 80 and 99.9% NaCMC in water (0.5% w/v) at 50 mg/kg dose. The dosing volume administered was 10 mL/kg. The blood samples were collected from set of three mice at each time point in labeled micro centrifuge tube containing K2EDTA solution as anticoagulant at Pre-dose, 0.25, 0.5, 1, 2, 4, 8, 12 and 24 hr. Plasma samples were separated by centrifugation of whole blood and stored below −70±10° C. until bioanalysis. All samples were processed for analysis by protein precipitation using acetonitrile and analyzed with fit-for-purpose LC-MS/MS method (LLOQ=2.46 ng/mL for M-III and 2.49 ng/mL for M-IV). Pharmacokinetic parameters were calculated using the non-compartmental analysis tool of Phoenix WinNonlin® (Version 6.3).

[4] = Plasma pharmacokinetics in dogs after single oral 3 mg/kg M3 or MIN-102; format: in vivo, male Beagle dogs
Protocol: (§1) The plasma pharmacokinetics of 5-[[4-[2-[5-acetylpyridin-2-yl]ethoxy]phenyl]methyl]-1,3-thiazolidine-2,4-dione (M-III; M3) and 5-[[4-[2-[5-(1-hydroxyethyl)pyridin-2-yl]ethoxy]phenyl]methyl]-1,3-thiazolidine-2,4-dione (M-IV; M4) were determined in male Beagle dogs following a single oral (3 mg/kg) dose administration of either M3 or MIN-102.
Six animals were dosed orally with a suspension formulation of either M-III or MIN-102 in 0.1% Tween 80 and 99.9% CMC (aqueous carboxymethylcellulose 0.5% w/v solution in RO water) at 3 mg/kg. Blood samples (0.5 ml) were collected from the saphenous or cephalic or jugular veins of dogs at predose, 0.5, 1, 2, 4, 6 and 24 hr. Samples were collected into labeled micro-tubes, containing K2EDTA solution (20% K2EDTA solution) as an anticoagulant. Plasma was immediately harvested from the blood by centrifugation at 4000 rpm for 10 min and stored below −70° C. until bioanalysis.
(§2) Concentrations of M3 and M-IV in dog plasma samples were determined by fit-for-purpose LC-MS/MS method. Non-Compartmental-Analysis module in Phoenix WinNonlin® (Version 6.3) was used to assess the pharmacokinetic parameters. Peak plasma concentrations (Cmax) and time for the peak plasma concentrations (Tmax) were the 59 observed values. The areas under the concentration time curve (AUClast and AUCinf) were calculated by linear trapezoidal rule.

[5] = Plasma pharmacokinetics in rats after single oral 10 mg/kg M-III or MIN-102; format: in vivo, male Sprague Dawley rats
Protocol: as §1, with “male Sprague Dawley” for “male Beagle dogs”, “oral (10” for “oral (3”, “either M-III” for “either M3”
Six animals were dosed orally with a suspension formulation of either M-III or MIN-102 in 0.1% Tween 80 and 99.9% CMC (0.5% w/v solution in RO water) at 10 mg/kg.
The dosing volume administered was 10 mL/kg. Blood samples (approximately 60 μL) were collected from retro-orbital plexus of three rats at 0.08, 0.25, 0.5, 1, 2, 4, 8, 12 and 24 hr (IV) and at predose, 0.25, 0.5, 1, 2, 4, 8, 12 and 24 hr. Samples were collected into labeled micro-tubes, containing K2EDTA solution (20% K2EDTA solution) as an anticoagulant. Plasma was immediately harvested from the blood by centrifugation at 4000 rpm for 10 min at 4±2° C. and stored below −70° C. until bioanalysis.
as §2, with “M-III” for “M3”, “rat” for “dog”, “(Cax)” for “(Cmax)”, “the” for “the 59”

[6] = as described in WO 2015/150476 A1; cited from earlier work

Sequence of mitochondrial pyruvate carrier (MPC) (Q9Y5U8 whole entry, the tested form may be a part): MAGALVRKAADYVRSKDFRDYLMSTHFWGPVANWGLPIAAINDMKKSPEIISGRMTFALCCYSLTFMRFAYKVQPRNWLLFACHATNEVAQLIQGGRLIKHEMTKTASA
Sequence of mitochondrial pyruvate carrier (MPC) (O95563 whole entry, the tested form may be a part): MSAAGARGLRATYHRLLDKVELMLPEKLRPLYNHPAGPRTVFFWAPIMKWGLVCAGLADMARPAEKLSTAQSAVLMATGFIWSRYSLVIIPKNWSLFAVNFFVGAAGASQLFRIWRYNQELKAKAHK

SMILES | IC50 [1] [nM] | share of total exposure (AUC) ([2]; after single oral 4.5 mg/kg M-III, male mice) [%] | share of total exposure (AUC) ([2]; after single oral 4.5 mg/kg MIN-102, male mice) | share of total exposure (AUC) [3] | share of total exposure (AUC) ([4]; after single oral 3 mg/kg M3, male dogs) [%] | share of total exposure (AUC) ([4]; after single oral 3 mg/kg MIN-102, male dogs) | share of total exposure (AUC) ([5]; after single oral 10 mg/kg M-III, male rats) [%] | share of total exposure (AUC) ([5]; after single oral 10 mg/kg MIN-102, male rats) | blood-brain-barrier penetration [6]
CCc1ccc(CCOc2ccc(CC3SC(=O)NC3=O)cc2)nc1 (stereo not shown) [Pioglitazone] | > 100000 |  |  |  |  |  |  |  | 
CN(CCOc1ccc(C[C@@H]2SC(=O)NC2=O)cc1)c1ccccn1 [Rosiglitazone] | 2000 |  |  |  |  |  |  |  | 
CC(O)c1ccc(CCOc2ccc(CC3SC(=O)NC3=O)cc2)nc1 (stereo not shown) [M-IV, 5-[[4-[2-[5-(1-hydroxyethyl)pyridin-2-yl]ethoxy]phenyl]methyl]-1,3-thiazolidine-2,4-dione] |  | ~75 | about 62% | about 75% | ~84 | about 92% | ~48 | about 58% | penetrates the BBB

Source: US20240091210A1, “USE OF 5-[[4-[2-[5-ACETYLPYRIDIN-2-YL]ETHOXY]BENZYL]-1,3-THIAZOLIDINE-2,4-DIONE AND ITS SALTS” (Minoryx Therapeutics S.L., priority 2018, published 2024)
